# Results reported in ChEMBL document CHEMBL3877316, “Synthesis of pharmacologically important naphthoquinones and anticancer activity of 2-benzyllawsone through DNA topoisomerase-II inhibition” (Bioorg Med Chem, 2017).
# Calls of active or inactive are those of the source. The rule behind the calls is not given here.
# What was measured:
# [1] = tested on: Mus musculus; assay: Acute toxicity in Swiss albino mouse assessed as serum SGOT level at 5 mg/kg, po qd administered as single dose for 7 days (reference value: 34.32 +/- 3.78 U/L); type: organism-based; details: in vivo, 168 h
# [2] = Antiproliferative activity against human FADU cells after 48 hrs by SRB assay; type: functional, cell-based
# [3] = tested on: Mus musculus; assay: Acute toxicity in Swiss albino mouse assessed as serum albumin level at 1000 mg/kg, po qd administered as single dose for 7 days (reference value: 2.49 +/- 0.17 g/dl); type: organism-based; details: in vivo, 168 h
# [4] = tested on: Mus musculus; assay: Acute toxicity in Swiss albino mouse assessed as serum protein level at 50 mg/kg, po qd administered as single dose for 7 days (reference value: 2.91 +/- 0.31 mg/ml); type: organism-based; details: in vivo, 168 h
# [5] = tested on: Mus musculus; assay: Acute toxicity in Swiss albino mouse assessed as serum protein level at 5 mg/kg, po qd administered as single dose for 7 days (reference value: 2.91 +/- 0.31 mg/ml); type: organism-based; details: in vivo, 168 h
# [6] = tested on: Mus musculus; assay: Acute toxicity in Swiss albino mouse assessed as effect on eosinophil count up to 1000 mg/kg, po qd administered as single dose for 7 days; type: organism-based; details: in vivo, 168 h
# [7] = tested on: Mus musculus; assay: Acute toxicity in Swiss albino mouse assessed as changes in absolute weight of brain up to 1000 mg/kg, po qd administered as single dose for 7 days; type: organism-based; details: in vivo, 168 h
# [8] = tested on: Mus musculus; assay: Acute toxicity in Swiss albino mouse assessed as effect on lymphocyte count up to 1000 mg/kg, po qd administered as single dose for 7 days; type: organism-based; details: in vivo, 168 h
# [9] = tested on: FaDu; assay: Induction of apoptosis in human FADU cells at 10 uM by propidium iodide staining based flow cytometry; type: functional, cell-based
# [10] = tested on: Mus musculus; assay: Acute toxicity in Swiss albino mouse assessed as serum RBC level at 1000 mg/kg, po qd administered as single dose for 7 days (reference value: 9.07 +/- 1.13 million/mm3); type: organism-based; details: in vivo, 168 h
# [11] = tested on: Mus musculus; assay: Acute toxicity in Swiss albino mouse assessed as serum cholesterol level at 1000 mg/kg, po qd administered as single dose for 7 days (reference value: 68.37 +/- 4.42 mg/dl); type: organism-based; details: in vivo, 168 h
# [12] = tested on: Mus musculus; assay: Acute toxicity in Swiss albino mouse assessed as changes in relative weight of spleen up to 1000 mg/kg, po qd administered as single dose for 7 days; type: organism-based; details: in vivo, 168 h
# [13] = tested on: Mus musculus; assay: Acute toxicity in Swiss albino mouse assessed as serum cholesterol level at 50 mg/kg, po qd administered as single dose for 7 days (reference value: 68.37 +/- 4.42 mg/dl); type: organism-based; details: in vivo, 168 h
# [14] = tested on: Mus musculus; assay: Acute toxicity in Swiss albino mouse assessed as serum WBC level at 300 mg/kg, po qd administered as single dose for 7 days (reference value: 8.64 +/- 0.42 10^3/mm3); type: organism-based; details: in vivo, 168 h
# [15] = Antiproliferative activity against human DLD1 cells after 48 hrs by SRB assay; type: functional, cell-based; details: DLD-1, 48 h
# [16] = tested on: Mus musculus; assay: Acute toxicity in Swiss albino mouse assessed as serum SGPT level at 300 mg/kg, po qd administered as single dose for 7 days (reference value: 23.06 +/- 1.92 U/L); type: organism-based; details: in vivo, 168 h
# [17] = tested on: Mus musculus; assay: Acute toxicity in Swiss albino mouse assessed as changes in relative weight of kidney up to 1000 mg/kg, po qd administered as single dose for 7 days; type: organism-based; details: in vivo, 168 h
# [18] = tested on: Mus musculus; assay: Acute toxicity in Swiss albino mouse assessed as serum haemoglobin level at 5 mg/kg, po qd administered as single dose for 7 days (reference value: 13.29 +/- 0.46 g/dl); type: organism-based; details: in vivo, 168 h
# [19] = tested on: Mus musculus; assay: Acute toxicity in Swiss albino mouse assessed as serum SGOT level at 300 mg/kg, po qd administered as single dose for 7 days (reference value: 34.32 +/- 3.78 U/L); type: organism-based; details: in vivo, 168 h
# [20] = tested on: Mus musculus; assay: Acute toxicity in Swiss albino mouse assessed as serum SGPT level at 1000 mg/kg, po qd administered as single dose for 7 days (reference value: 23.06 +/- 1.92 U/L); type: organism-based; details: in vivo, 168 h
# [21] = tested on: Mus musculus; assay: Acute toxicity in Swiss albino mouse assessed as serum RBC level at 300 mg/kg, po qd administered as single dose for 7 days (reference value: 9.07 +/- 1.13 million/mm3); type: organism-based; details: in vivo, 168 h
# [22] = tested on: Mus musculus; assay: Acute toxicity in Swiss albino mouse assessed as changes in absolute weight of spleen up to 1000 mg/kg, po qd administered as single dose for 7 days; type: organism-based; details: in vivo, 168 h
# [23] = Antiproliferative activity against human MCF7 cells after 48 hrs by SRB assay; type: functional, cell-based; details: MCF7, 48 h
# [24] = tested on: FaDu; assay: Inhibition of topoisomerase-2 in human FADU cells at 2 times antiproliferative IC50 after 24 hrs by ELISA relative to control; type: cell-based
# [25] = tested on: Mus musculus; assay: Acute toxicity in Swiss albino mouse assessed as effect on neutrophil count up to 1000 mg/kg, po qd administered as single dose for 7 days; type: organism-based; details: in vivo, 168 h
# [26] = tested on: Mus musculus; assay: Acute toxicity in Swiss albino mouse assessed as serum WBC level at 5 mg/kg, po qd administered as single dose for 7 days (reference value: 8.64 +/- 0.42 10^3/mm3); type: organism-based; details: in vivo, 168 h
# [27] = tested on: FaDu; assay: Induction of apoptosis in human FADU cells assessed as increase in PARP cleavage at 5 to 10 uM by Western blot method; type: functional, cell-based
# [28] = tested on: Mus musculus; assay: Acute toxicity in Swiss albino mouse assessed as serum SGOT level at 50 mg/kg, po qd administered as single dose for 7 days (reference value: 34.32 +/- 3.78 U/L); type: organism-based; details: in vivo, 168 h
# [29] = tested on: Mus musculus; assay: Acute toxicity in Swiss albino mouse assessed as serum triglycerides level at 5 mg/kg, po qd administered as single dose for 7 days (reference value: 107.9 +/- 10.7 mg/dl); type: organism-based; details: in vivo, 168 h
# [30] = tested on: Mus musculus; assay: Acute toxicity in Swiss albino mouse assessed as changes in relative weight of brain up to 1000 mg/kg, po qd administered as single dose for 7 days; type: organism-based; details: in vivo, 168 h
# [31] = tested on: Mus musculus; assay: Acute toxicity in Swiss albino mouse assessed as serum creatinine level at 300 mg/kg, po qd administered as single dose for 7 days (reference value: 0.09 +/- 0.01 mg/dl); type: organism-based; details: in vivo, 168 h
# [32] = tested on: Mus musculus; assay: Acute toxicity in Swiss albino mouse assessed as serum RBC level at 50 mg/kg, po qd administered as single dose for 7 days (reference value: 9.07 +/- 1.13 million/mm3); type: organism-based; details: in vivo, 168 h
# [33] = tested on: Mus musculus; assay: Acute toxicity in Swiss albino mouse assessed as body weight at 1000 mg/kg, po qd administered as single dose for 7 days (reference value: 27.73 +/- 0.94 g); type: organism-based; details: in vivo, 168 h
# [34] = tested on: Mus musculus; assay: Acute toxicity in Swiss albino mouse assessed as changes in response of mouse up to 1000 mg/kg, po qd administered as single dose for 7 days; type: organism-based; details: in vivo, 168 h
# [35] = tested on: Mus musculus; assay: Acute toxicity in Swiss albino mouse assessed as changes in posture up to 1000 mg/kg, po qd administered as single dose for 7 days; type: organism-based; details: in vivo, 168 h
# [36] = tested on: Mus musculus; assay: Acute toxicity in Swiss albino mouse assessed as changes in relative weight of heart up to 1000 mg/kg, po qd administered as single dose for 7 days; type: organism-based; details: in vivo, 168 h
# [37] = Cell cycle arrest in human FADU cells assessed as accumulation at S phase at 2.5 to 10 uM by propidium iodide staining based flow cytometry; type: functional
structure (smiles),measurement,setting,value
O=C1C=C(OCc2ccccc2)C(=O)c2ccccc21,Activity,[1],38.3 U/L
same,IC50,[2],5.27 µM
same,Activity,[3],2.88 g/dL
same,Activity,[4],2.92 mg/mL
same,Activity,[5],2.55 mg/mL
same,Activity,[6],Non-Toxic
same,Activity,[7],Non-Toxic
same,Activity,[8],Non-Toxic
same,Activity,[9],Active
same,Activity,[10],8.89 million/mm3
same,Activity,[11],51.05 mg/dL
same,Activity,[12],Non-Toxic
same,Activity,[13],65.13 mg/dL
same,Activity,[14],8.52 ×10³ /mm3
same,IC50,[15],16.2 µM
same,Activity,[16],20.48 U/L
same,Activity,[17],Non-Toxic
same,Activity,[18],12.65 g/dL
same,Activity,[19],33.87 U/L
same,Activity,[20],25 U/L
same,Activity,[21],9.59 million/mm3
same,Activity,[22],Non-Toxic
same,IC50,[23],13.9 µM
same,inhibition,[24],36.6%
same,Activity,[25],Non-Toxic
same,Activity,[26],8.66 ×10³ /mm3
same,Activity,[27],Active
same,Activity,[28],30.19 U/L
same,Activity,[29],130.9 mg/dL
same,Activity,[30],Non-Toxic
same,Activity,[31],0.13 mg/dL
same,Activity,[32],8.54 million/mm3
same,Activity,[33],26.48 g
same,Activity,[34],Non-Toxic
same,Activity,[35],Non-Toxic
same,Activity,[36],Non-Toxic
same,Activity,[37],Active
